Patent US4431804A, “Thiazolylacetamido compounds” (Hoffmann-La Roche Inc., priority 1981, dated 1984)
Structures can show the parent of a compound that is named as a salt.

Columns and labels:
[1] = tested on: Pseudomonas aeruginosa; assay: in vitro activity against 15 strains of Pseudomonas aeruginosa (minimum inhibitory concentration); type: cell-based
Description: Results (as MIC=minimum inhibitory concentration in μg/ml): […]

[2] = Toxicity (LD50); settings: in vivo
Description: Toxicity of the trisodium salt of (6R,7R)-7-[(Z)-2-(2-amino-4-[…])-2-[(1-carboxy-1-methylethoxy)imino]acetamido]-3-[[(2,5-dihydro-6-hydroxy-2-methyl-5-oxo-as-triazin-3-yl)thio]methyl]-8-oxo-5-thia-1-azabicyclo[4.2.0]oct-2-ene-2-carboxylic acid: […]

Compound `Cn1nc(O)c(=O)nc1SCC1=C(C(=O)O)N2C(=O)[C@@H](NC(=O)/C(=N\OC(C)(C)C(=O)O)c3csc(N)n3)[C@H]2SC1` [Example 1, trisodium salt of (6R,7R)-7-[(Z)-2-(2-amino-4-thiazolyl)-2-[(1-carboxy-1-methylethoxy)imino]acetamido]-3-[[(2,5-dihydro-6-hydroxy-2-methyl-5-oxo-as-triazin-3-yl)thio]methyl]-8-oxo-5-thia-1-azabicyclo[4.2.0]oct-2-ene-2-carboxylic acid] has an MIC ([1]; P. aeruginosa strain 1, in vitro) of 6.3 µg/mL, an MIC ([1]; P. aeruginosa strain 2, in vitro) of 1.6 µg/mL and an MIC ([1]; P. aeruginosa strain 3, in vitro) of 1.6 µg/mL. The MIC ([1]; P. aeruginosa strain 4, in vitro) was 1.6 µg/mL, the MIC ([1]; P. aeruginosa strain 5, in vitro) was 1.6 µg/mL and the MIC ([1]; P. aeruginosa strain 6, in vitro) was 1.6 µg/mL. The MIC ([1]; P. aeruginosa strain 7, in vitro) was 1.6 µg/mL, the MIC ([1]; P. aeruginosa strain 8, in vitro) was 25 µg/mL and the MIC ([1]; P. aeruginosa strain 9, in vitro) was 3.1 µg/mL. The MIC ([1]; P. aeruginosa strain 10, in vitro) was 1.6 µg/mL, the MIC ([1]; P. aeruginosa strain 11, in vitro) was 0.8 µg/mL and the MIC ([1]; P. aeruginosa strain 12, in vitro) was 1.6 µg/mL. The MIC ([1]; P. aeruginosa strain 13, in vitro) was 1.6 µg/mL, the MIC ([1]; P. aeruginosa strain 14, in vitro) was 1.6 µg/mL and the MIC ([1]; P. aeruginosa strain 15, in vitro) was 1.6 µg/mL. It also gave an LD50 ([2]; iv) greater than 1000 mg/kg, an LD50 ([2]; po) greater than 4000 mg/kg and an LD50 ([2]; sc) greater than 4000 mg/kg.
